Values of other authors, collected in PMC12586580 (Nature Communications, 2025).

Compound | affinity for Man (Pmt3 MIR domain) | affinity for Man (Pmt2 MIR domain) | Pmt4 substrate property (in words) (Pmt4)
OC[C@H]1OC(O)[C@@H](O)[C@@H](O)[C@@H]1O (stereo partly drawn) [Man, mannose] | low mM affinity | low mM affinity | 
Ccw5: yeast cell wall protein 5 (Ccw5) (ASKTSTNATSSSCATPSLKD) |  |  | good Pmt4 substrate
